Data on one compound can be found in PMC4558462, “A new small molecule inhibitor of soluble guanylate cyclase” (Bioorganic & Medicinal Chemistry, 2015).

Experiment [1] addresses T1, full-length enzyme (sGC) (Homo sapiens, UniProt Q02108+Q02153).
T1 construct: Full-length human recombinant guanylyl cyclase (soluble); purchased Enzo lifesciences ALX-201-177
T1 sequence (Q02108 1-690): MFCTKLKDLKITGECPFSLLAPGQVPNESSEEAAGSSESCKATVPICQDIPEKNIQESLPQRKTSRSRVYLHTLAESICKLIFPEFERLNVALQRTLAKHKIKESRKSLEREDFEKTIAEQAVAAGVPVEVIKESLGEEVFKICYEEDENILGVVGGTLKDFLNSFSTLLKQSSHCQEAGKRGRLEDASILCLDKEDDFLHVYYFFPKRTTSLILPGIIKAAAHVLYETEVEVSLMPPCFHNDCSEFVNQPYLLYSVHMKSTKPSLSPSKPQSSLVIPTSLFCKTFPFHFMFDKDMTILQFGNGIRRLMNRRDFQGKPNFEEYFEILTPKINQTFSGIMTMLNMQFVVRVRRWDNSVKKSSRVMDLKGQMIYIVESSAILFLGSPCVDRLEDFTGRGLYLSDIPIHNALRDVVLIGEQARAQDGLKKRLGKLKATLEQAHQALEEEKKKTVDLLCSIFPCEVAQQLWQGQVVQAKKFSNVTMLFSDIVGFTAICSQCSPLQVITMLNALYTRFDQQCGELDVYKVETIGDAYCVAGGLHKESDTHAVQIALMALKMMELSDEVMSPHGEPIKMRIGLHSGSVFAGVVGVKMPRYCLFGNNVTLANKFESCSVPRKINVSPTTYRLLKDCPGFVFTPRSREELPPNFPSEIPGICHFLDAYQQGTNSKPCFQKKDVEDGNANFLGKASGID
T1 sequence (Q02153 1-619): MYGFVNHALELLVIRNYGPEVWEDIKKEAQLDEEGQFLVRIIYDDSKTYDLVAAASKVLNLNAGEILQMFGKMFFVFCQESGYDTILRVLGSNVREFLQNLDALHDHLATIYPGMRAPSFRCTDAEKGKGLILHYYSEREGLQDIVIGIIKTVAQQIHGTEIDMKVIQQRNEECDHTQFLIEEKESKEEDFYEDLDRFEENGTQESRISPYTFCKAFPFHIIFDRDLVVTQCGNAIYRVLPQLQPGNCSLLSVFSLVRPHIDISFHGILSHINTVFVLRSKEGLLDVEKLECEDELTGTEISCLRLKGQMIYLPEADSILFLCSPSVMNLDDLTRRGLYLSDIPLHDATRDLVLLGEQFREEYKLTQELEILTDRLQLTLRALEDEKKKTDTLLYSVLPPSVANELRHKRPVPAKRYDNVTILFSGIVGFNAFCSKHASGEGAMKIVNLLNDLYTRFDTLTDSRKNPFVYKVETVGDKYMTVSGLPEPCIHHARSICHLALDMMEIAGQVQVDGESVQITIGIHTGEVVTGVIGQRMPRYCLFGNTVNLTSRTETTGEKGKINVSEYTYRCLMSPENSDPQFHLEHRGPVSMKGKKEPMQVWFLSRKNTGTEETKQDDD
The experiment is described as follows: SPR binding to full-length sGC. Here is the method: Full-length human recombinant guanylyl cyclase (soluble) and bovine lung guanylyl cyclase (soluble) were obtained from Enzo lifesciences (catalogue numbers ALX-201-177 and ALX-202-039-C005). Biacore consumables were purchased from GE Healthcare (UK), including buffer stock solutions. All other reagents used were obtained from Sigma. Starting materials were either commercially available or synthesized according to methods reported in the literature. ^1H and ^13C NMR spectra were recorded on a Bruker AMX-300 or a Bruker AMX-500 spectrometer. Chemical shifts are reported as ppm relative to TMS internal standard. Mass spectra were recorded on a Fisons VG70-SE spectrometer (EI, FAB) or an Agilent 6100 Series LC-mass spectrometer using C-18 or C-4 columns. Microwave reactions were carried out using a CEM Discover microwave.
Surface plasmon resonance (SPR) experiments were performed with a Biacore T200 instrument at 25 °C. Data processing and analysis were performed using BIAevaluation software and Scrubber2. All sensorgrams were double referenced by subtracting the response in a reference flowcell and a blank sample. Materials and methods used were the same as previously published.[24]
(Surface plasmon resonance follows binding to a sensor surface in real time, without labels.)

For experiment [2], the system named is NMDA-stimulated cGMP production in cerebellar slices. The experiment is described as follows: NMDA-stimulated cGMP production in rat cerebellar slices. The experiment is classed as cell-based. The settings on record: 100 μM. Here is the method: The ability of compound 10 to inhibit sGC in tissues was explored using NMDA-stimulated cGMP production in cerebellar slices, which depends on NO formation. Rat cerebellar slices were pre-incubated with compound 10 then treated with NMDA.
Brain slices methods were conducted as described in detail.[37,38] Briefly, 0.4 mm thick sagittal cerebellar slices from 10-day-old animals were cut using a McIlwain tissue chopper. Experiments were carried out in the presence of the broad spectrum phosphodiesterase inhibitor IBMX (1 mM; 10 min preincubation) and, when appropriate, antagonists were added 10 min prior to IBMX. Following treatment, brain slices were inactivated in boiling Tris–HCl buffer (50 mM, pH 7.5) containing EDTA (4 mM) and homogenised by sonication after which aliquots were removed for measurement of protein (bicinchoninic acid method) and cGMP (radioimmunoassay).

The subject of experiment [3] is adenylyl cyclase. The experiment is described as follows: Adenylyl cyclase activity (data not shown). The experiment is classed as biochemical. The text has this: The sGC heterodimer is composed of a α-subunit and a shorter β-subunit which presents in the N-terminal the prosthetic haem group bound to histidine-105.[27] Each subunit is composed of a haem-nitric oxide binding domain, a PAS-like domain, a coiled-coil bundle, and the C-terminal catalytic domain where turnover of GTP into cGMP occurs.[28] […] The two sites are different, and small molecules can bind to one or to both sites, thus showing a 1:1 or 1:2 binding ratio. We have previously shown by surface plasmon resonance (SPR) that ATP binds to both sites and may inhibit sGC activity via competition with GTP, highlighting the potential for allosteric regulation of the enzyme.[24] GC domains are also present in the membrane-bound natriuretic peptide receptors type-A and type-B. There receptors, also referred to as particulate GCs (pGCs), are activated by binding of natriuretic peptides to the extracellular domain of the receptors, leading to an increase in GTP turnover at the intracellular GC domain.[32–34] In this study we observed by SPR that compound 10 bound to the catalytic domain of sGC in a 1:1 ratio. […] However, activity against kinases or phosphodiesterases was not investigated.

Entries after “also recorded” stand apart in the source; their conditions may differ.

In the case of `O=[N+]([O-])c1ccc2nc(Nc3ccc(O)cc3)c(Nc3ccc(O)cc3)nc2c1` [Compound 10, 4,4′-((6-Nitroquinoxaline-2,3-diyl)bis(azanediyl))diphenol], binding in experiment [1] was characterised by a dissociation constant (Kd) of 19.4 ± 2.1 µM. Also, the “inhibition of NMDA-induced cGMP generation” value in experiment [2] was “almost completely; also recorded: inhibits cGMP production”. Moreover, the “activity on adenylyl cyclase” value in experiment [3] (basal) and in experiment [3] (forskolin-stimulated) was “no activity” throughout.
